One molecule from PubChem BioAssay AID489019 (Sanford-Burnham Center for Chemical Genomics, 2010) can be followed below.

Active and inactive are the calls of the source. The rule behind the calls is not given here.

The subject of the test is HEK-293T NF-kB-Luc cytotoxicity, resazurin fluorescence, 15 h. The experiment in a line: cytotoxicity in HEK-293T NF-kB-Luc cells, dose response, cytotoxicity control for B/T-cell NF-kB inhibitor project, cell-based, uHTS hits (AID 489019).

With `CC(=O)OC[C@]12CCC(C)=C[C@H]1O[C@@H]1[C@H](O)[C@@H](OC(C)=O)[C@@]2(C)[C@]12CO2`, the IC50 was > 80 µM (inactive).
